Experimental data published in patent US20240018123A1, “COMPOUND FOR INHIBITING OR DISINTEGRATING ANDROGEN RECEPTOR, AND PHARMACEUTICAL USE THEREOF” (KOREA RESEARCH INSTITUTE OF CHEMICAL TECHNOLOGY, priority 2020, published 2024).

Experiments:
VCaP cells = assay: Cytotoxicity assessment (Cell-titer-glo cell viability), VCaP; conditions: read-out: VCaP (CC50); VCaP cells, 6 days of treatment, Cell-titer-glo, vs DMSO
Androgen receptor (AR) = biological target: T1, Androgen receptor (AR) (Homo sapiens, UniProt P10275, T878A); assay: Assessment of AR proteolytic activity (Western blotting of LNCap cell lysates); type: cell-based; conditions: 24 hours of treatment, Western blotting quantified with Image J
T1 construct: 5.5×10^5 LNCap cells were injected into each well of a 6-well plate; endogenous in cells; host or cells: LNCaP
T1 sequence (P10275 1-920 T878A): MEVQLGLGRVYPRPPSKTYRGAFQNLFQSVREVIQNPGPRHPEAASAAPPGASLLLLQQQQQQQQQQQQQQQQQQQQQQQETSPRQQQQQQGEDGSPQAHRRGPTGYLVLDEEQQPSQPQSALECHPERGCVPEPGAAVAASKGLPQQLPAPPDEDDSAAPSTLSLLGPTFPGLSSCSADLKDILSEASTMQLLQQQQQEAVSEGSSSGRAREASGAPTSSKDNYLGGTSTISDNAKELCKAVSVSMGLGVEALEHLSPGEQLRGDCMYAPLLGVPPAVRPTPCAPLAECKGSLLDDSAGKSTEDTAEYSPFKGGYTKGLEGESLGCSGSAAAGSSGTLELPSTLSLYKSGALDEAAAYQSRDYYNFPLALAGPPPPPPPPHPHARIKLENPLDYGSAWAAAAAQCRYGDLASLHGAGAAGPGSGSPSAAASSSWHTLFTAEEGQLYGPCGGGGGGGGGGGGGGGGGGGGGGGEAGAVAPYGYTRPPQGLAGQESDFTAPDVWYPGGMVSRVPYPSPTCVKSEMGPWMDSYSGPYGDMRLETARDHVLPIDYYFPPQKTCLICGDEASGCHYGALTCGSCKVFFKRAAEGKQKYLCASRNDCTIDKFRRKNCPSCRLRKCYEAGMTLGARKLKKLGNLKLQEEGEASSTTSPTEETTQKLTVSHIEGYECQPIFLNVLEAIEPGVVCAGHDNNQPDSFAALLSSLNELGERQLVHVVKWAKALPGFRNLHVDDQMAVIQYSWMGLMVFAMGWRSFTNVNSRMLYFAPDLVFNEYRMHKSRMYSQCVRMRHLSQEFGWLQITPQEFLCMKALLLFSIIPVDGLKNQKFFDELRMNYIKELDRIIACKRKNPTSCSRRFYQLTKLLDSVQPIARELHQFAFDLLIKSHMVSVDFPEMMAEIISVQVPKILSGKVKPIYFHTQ
Summary of the method: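 LNCap cells seeded at 5.5×10^5 per well and treated with compound for 24 hours. Lysates prepared in RIPA buffer (pH 7.5, with protease inhibitors). AR protein levels assessed by Western blot with densitometric quantification.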

SMILES | CC50 (VCaP cells) [nM] | Degradation (1 μM treated in LNCaP, % AR remaining) (Androgen receptor (AR)) [%]
CC1(C)C(NC(=O)c2ccc(N3CC4CN(C(=O)COc5ccc6nnn(C7CCC(=O)NC7=O)c(=O)c6c5)CC4C3)cc2)C(C)(C)C1Oc1ccc(C#N)c(Cl)c1 (stereo not drawn) [Example 135, N-((1r,3r)-3-(3-chloro-4-cyanophenoxy)-2,2,4,4-tetramethylcyclobutyl)-4-(5-(2-((3-(2,6-dioxopiperidin-3-yl)-4-oxo-3,4-dihydrobenzo[d][1,2,3]triazin-6-yl)oxy)acetyl)hexahydropyrrolo[3,4-c]pyrrol-2(1H)-yl)benzamide] | ~10 | 
CC1(C)C(NC(=O)c2ccc(-n3cc(CCOCCOCCNC(=O)C4CCN(c5ccc6nnn(C7CCC(=O)NC7=O)c(=O)c6c5)CC4)nn3)cc2)C(C)(C)C1Oc1ccc(C#N)c(Cl)c1 (stereo not drawn) [Example 158, N-(2-(2-(2-(1-(4-(((1r,3r)-3-(3-chloro-4-cyanophenoxy)-2,2,4,4-tetramethylcyclobutyl)carbamoyl)phenyl)-1H-1,2,3-triazol-4-yl)ethoxy)ethoxy)ethyl)-1-(3-(2,6-dioxopiperidin-3-yl)-4-oxo-3,4-dihydrobenzo[d][1,2,3]triazin-6-yl)piperidine-4-carboxamide] | 38.8 | 
CC1(C)C(NC(=O)c2ccc(C#CC3CCN(CC4CCN(C(=O)C5CCN(c6ccc7nnn(C8CCC(=O)NC8=O)c(=O)c7c6)CC5)CC4)CC3)nc2)C(C)(C)C1Oc1ccc(C#N)c(Cl)c1 (stereo not drawn) [Example 131, N-((1r,3r)-3-(3-chloro-4-cyanophenoxy)-2,2,4,4-tetramethylcyclobutyl)-6-((1-((1-(1-(3-(2,6-dioxopiperidin-3-yl)-4-oxo-3,4-dihydrobenzo[d][1,2,3]triazin-6-yl)piperidine-4-carbonyl)piperidin-4-yl)methyl)piperidin-4-yl)ethynyl)nicotinamide] | 18.5 | 
CC1(C)C(NC(=O)c2ccc(C#CC3CCN(CC4CCN(C(=O)C5CCN(c6ccc7nnn(C8CCC(=O)NC8=O)c(=O)c7c6)CC5)CC4)CC3)nc2)C(C)(C)C1Oc1ccc(C#N)c(Cl)c1 (stereo not drawn) [Example 130, N-((1r,3r)-3-(3-chloro-4-cyanophenoxy)-2,2,4,4-tetramethylcyclobutyl)-6-((1-((1-(1-(3-(2,6-dioxopiperidin-3-yl)-4-oxo-3,4-dihydrobenzo[d][1,2,3]triazin-6-yl)piperidine-4-carbonyl)piperidin-4-yl)methyl)piperidin-4-yl)ethynyl)nicotinamide] | 17 | 
CC1(C)C(NC(=O)c2ccc(-n3cc(CN4CCN(c5ccc6nnn(C7CCC(=O)NC7=O)c(=O)c6c5)CC4)nn3)cc2)C(C)(C)C1Oc1ccc(C#N)c(Cl)c1 (stereo not drawn) [Example 120, N-((1r,3r)-3-(3-chloro-4-cyanophenoxy)-2,2,4,4-tetramethylcyclobutyl)-4-(4-((4-(3-(2,6-dioxopiperidin-3-yl)-4-oxo-3,4-dihydrobenzo[d][1,2,3]triazin-6-yl)piperazin-1-yl)methyl)-1H-1,2,3-triazol-1-yl)benzamide] | 29.7 | 
CC1(C)C(NC(=O)c2ccc(C#CC3CCN(CC4CCN(C(=O)COc5ccc6nnn(C7CCC(=O)NC7=O)c(=O)c6c5)CC4)CC3)nc2)C(C)(C)C1Oc1ccc(C#N)c(Cl)c1 (stereo not drawn) [Example 133, N-((1r,3r)-3-(3-chloro-4-cyanophenoxy)-2,2,4,4-tetramethylcyclobutyl)-6-((1-((1-(2-((3-(2,6-dioxopiperidin-3-yl)-4-oxo-3,4-dihydrobenzo[d][1,2,3]triazin-6-yl)oxy)acetyl)piperidin-4-yl)methyl)piperidin-4-yl)ethynyl)nicotinamide] | 15 | 
CC1(C)C(NC(=O)c2ccc(-n3cc(CCNC(=O)C4CN(c5ccc6nnn(C7CCC(=O)NC7=O)c(=O)c6c5)C4)nn3)cc2)C(C)(C)C1Oc1ccc(C#N)c(Cl)c1 (stereo not drawn) [Example 155, N-(2-(1-(4-(((1r,3r)-3-(3-chloro-4-cyanophenoxy)-2,2,4,4-tetramethylcyclobutyl)carbamoyl)phenyl)-1H-1,2,3-triazol-4-yl)ethyl)-1-(3-(2,6-dioxopiperidin-3-yl)-4-oxo-3,4-dihydrobenzo[d][1,2,3]triazin-6-yl)azetidine-3-carboxamide] | 177 | 
CC1(C)C(NC(=O)c2ccc(C#CC3CCN(CC4CCN(C(=O)CNc5ccc6nnn(C7CCC(=O)NC7=O)c(=O)c6c5)CC4)CC3)nc2)C(C)(C)C1Oc1ccc(C#N)c(Cl)c1 (stereo not drawn) [Example 132, N-((1r,3r)-3-(3-chloro-4-cyanophenoxy)-2,2,4,4-tetramethylcyclobutyl)-6-((1-((1-((3-(2,6-dioxopiperidin-3-yl)-4-oxo-3,4-dihydrobenzo[d][1,2,3]triazin-6-yl)glycyl)piperidin-4-yl)methyl)piperidin-4-yl)ethynyl)nicotinamide] | 15 | 
CC1(C)C(NC(=O)c2ccc(N3CCC(CN4CCN(c5ccc6c(=O)n(C7CCC(=O)NC7=O)nnc6c5)CC4)CC3)cc2)C(C)(C)C1Oc1ccc(C#N)c(Cl)c1 (stereo not drawn) [Example 165, N-((1r,3r)-3-(3-chloro-4-cyanophenoxy)-2,2,4,4-tetramethylcyclobutyl)-4-(4-((4-(3-(2,6-dioxopiperidin-3-yl)-4-oxo-3,4-dihydrobenzo[d][1,2,3]triazin-7-yl)piperazin-1-yl)methyl)piperidin-1-yl)benzamide] |  | 8
CC1(C)C(NC(=O)c2ccc(N3CCN(CCCCCOc4ccc5nnn(C6CCC(=O)NC6=O)c(=O)c5c4)CC3)nc2)C(C)(C)C1Oc1ccc(C#N)c(Cl)c1 (stereo not drawn) [Example 163, N-((1r,3r)-3-(3-chloro-4-cyanophenoxy)-2,2,4,4-tetramethylcyclobutyl)-6-(4-(5-((3-(2,6-dioxopiperidin-3-yl)-4-oxo-3,4-dihydrobenzo[d][1,2,3]triazin-6-yl)oxy)pentyl)piperazin-1-yl)nicotinamide] |  | 10
CC1(C)C(NC(=O)c2ccc(N3CCC(CN4CCN(C5CCN(c6ccc7c(=O)n(C8CCC(=O)NC8=O)nnc7c6)CC5)CC4)CC3)nc2)C(C)(C)C1Oc1ccc(C#N)c(Cl)c1 (stereo not drawn) [Example 193, N-((1r,3r)-3-(3-chloro-4-cyanophenoxy)-2,2,4,4-tetramethylcyclobutyl)-6-(4-((4-(1-(3-(2,6-dioxopiperidin-3-yl)-4-oxo-3,4-dihydrobenzo[d][1,2,3]triazin-7-yl)piperidin-4-yl)piperazin-1-yl)methyl)piperidin-1-yl)nicotinamide] |  | 12
CC1(C)C(NC(=O)c2ccc(N3CC[C@@H](CN4CC5(CCN(c6ccc7nnn(C8CCC(=O)NC8=O)c(=O)c7c6)CC5)C4)C3)nc2)C(C)(C)C1Oc1ccc(C#N)c(Cl)c1 (stereo partly drawn) [Example 188, N-((1r,3S)-3-(3-chloro-4-cyanophenoxy)-2,2,4,4-tetramethylcyclobutyl)-6-((3S)-3-((7-(3-(2,6-dioxopiperidin-3-yl)-4-oxo-3,4-dihydrobenzo[d][1,2,3]triazin-6-yl)-2,7-diazaspiro[3.5]nonan-2-yl)methyl)pyrrolidin-1-yl)nicotinamide] |  | 21
CC1(C)C(NC(=O)c2ccc(N3CCC4(CC3)CN(CC3CN(c5ccc6nnn(C7CCC(=O)NC7=O)c(=O)c6c5)C3)C4)nc2)C(C)(C)C1Oc1ccc(C#N)c(Cl)c1 (stereo not drawn) [Example 176, N-((1r,3r)-3-(3-chloro-4-cyanophenoxy)-2,2,4,4-tetramethylcyclobutyl)-6-(2-((1-(3-(2,6-dioxopiperidin-3-yl)-4-oxo-3,4-dihydrobenzo[d][1,2,3]triazin-6-yl)azetidin-3-yl)methyl)-2,7-diazaspiro[3.5]nonan-7-yl)nicotinamide] |  | 6
CC1(C)C(NC(=O)c2ccc(N3CC[C@@H](CN4CC5(CCN(c6ccc7c(=O)n(C8CCC(=O)NC8=O)nnc7c6)CC5)C4)C3)nc2)C(C)(C)C1Oc1ccc(C#N)c(Cl)c1 (stereo partly drawn) [Example 187, N-((1r,3S)-3-(3-chloro-4-cyanophenoxy)-2,2,4,4-tetramethylcyclobutyl)-6-((3S)-3-((7-(3-(2,6-dioxopiperidin-3-yl)-4-oxo-3,4-dihydrobenzo[d][1,2,3]triazin-7-yl)-2,7-diazaspiro[3.5]nonan-2-yl)methyl)pyrrolidin-1-yl)nicotinamide] |  | 27
N#Cc1ccc(OC2CCC(NC(=O)c3ccc(N4CCC(CN5CCN(c6ccc7nnn(C8CCC(=O)NC8=O)c(=O)c7c6)CC5)CC4)nc3)CC2)cc1Cl (stereo not drawn) [Example 160, N-((1r,4r)-4-(3-chloro-4-cyanophenoxy)cyclohexyl)-6-(4-((4-(3-(2,6-dioxopiperidin-3-yl)-4-oxo-3,4-dihydrobenzo[d][1,2,3]triazin-6-yl)piperazin-1-yl)methyl)piperidin-1-yl)nicotinamide] |  | 31
